Data published in patent US20200102264A1, “MARMELIN ANALOGS AND METHODS OF USE IN CANCER TREATMENT” (THE UNIVERSITY OF KANSAS, priority 2014, published 2020).

Legend:
Format in all cases: cell-based
[1] = system: SW480 cells; assay: cell cycle analysis, SW480; details: SW480, Table 3
Method: The analogs were tested to determine the ability induce death of colon cancer cells.

[2] = system: HCT116 colon cancer cells; assay: hexoseaminidase cell proliferation assay, HCT116
Description: (§1) Using hexoseaminidase assay, we determined the effect of the compounds on cell proliferation. […]
(§2) Using hexoseaminidase assay, we determined the effect of the compounds on cell proliferation. […] […] […] Overall, the analogs can be used as chemotherapeutic agents against colon and pancreatic cancer.

[3] = system: MiaPaCa-2 pancreatic cancer cells; assay: hexoseaminidase cell proliferation assay, MiaPaCa-2
Method: (§3) Using hexoseaminidase assay, we determined the effect of the compounds on cell proliferation. […] The IC50 value at 48 hours is below 10 μM in all the cancer cell lines.
(§4) Using hexoseaminidase assay, we determined the effect of the compounds on cell proliferation. […] The MRL16 IC50 value at 48 hours is below 0.3 μM in Colon cancer cell lines. […] Overall, the analogs can be used as chemotherapeutic agents against colon and pancreatic cancer.

[4] = system: HCT116 cells; assay: cell cycle analysis, HCT116; details: HCT116, Table 3
[5] = system: SW480 colon cancer cells; assay: hexoseaminidase cell proliferation assay, SW480
Description: as §1, §2

[6] = system: PanC-1 pancreatic cancer cells; assay: hexoseaminidase cell proliferation assay, PanC-1
Method: as §3, §4

[7] = system: colon, pancreatic and bladder cancer cells; assay: hexoseaminidase cell proliferation assay, summaries over cell lines; details: dose and time dependent
Method: Water solubility studies were performed with the CD/analog complexes. […] The observed IC50 value of THBCD at 48 h is below 10 μM in all the colon, pancreatic and bladder cancer cells.
as §3, §4

[8] = Homo sapiens, HCT-116, HCT116, 24 h
[9] = Homo sapiens, HCT-116, HCT116, 48 h
[10] = Homo sapiens, HCT-116, HCT116, 72 h
[11] = Homo sapiens, MIA PaCa-2, MiaPaCa-2, 24 h
[12] = Homo sapiens, MIA PaCa-2, MiaPaCa-2, 48 h
[13] = Homo sapiens, MIA PaCa-2, MiaPaCa-2, 72 h

IC50 [2, 8] [µM]	IC50 [2, 9] [µM]	IC50 [2, 10] [µM]	IC50 [3, 11] [µM]	IC50 [3, 12] [µM]	IC50 [3, 13] [µM]	IC50 ([5]; Homo sapiens, SW480, 24 h) [µM]	IC50 ([5]; Homo sapiens, SW480, 48 h) [µM]	IC50 ([5]; Homo sapiens, SW480, 72 h) [µM]	IC50 ([6]; Homo sapiens, PANC-1, 24 h) [µM]	IC50 ([6]; Homo sapiens, PANC-1, 48 h) [µM]	IC50 ([6]; Homo sapiens, PANC-1, 72 h) [µM]	IC50 ([2]; HCT116, 48 h) [µM]	IC50 ([2]; HCT116, 72 h) [µM]	IC50 ([3]; MiaPaCa-2, 24 h) [µM]	IC50 ([3]; MiaPaCa-2, 48 h) [µM]	IC50 ([3]; MiaPaCa-2, 72 h) [µM]	IC50 ([5]; SW480, 48 h) [µM]	IC50 ([5]; SW480, 72 h) [µM]	IC50 ([6]; PanC-1, 24 h) [µM]	Structure (SMILES)	other results
> 10	> 10	> 10	> 10	> 10	> 10	> 10	> 10	> 10	> 10	> 10	> 10	–	–	–	–	–	–	–	–	CC(=O)c1ccc2ccccc2c1O [MRL15]	–
> 10	3	1	> 10	> 10	10	> 10	5	3	> 10	4	2	–	–	–	–	–	–	–	–	C/C(=N\NC(=O)c1ccccc1O)c1ccc2ccccc2c1O [MRL18]	inhibition of cell proliferation (in words) [7]: potent inhibitor
> 10	5	2.3	> 10	> 10	> 10	> 10	> 10	5	> 10	10	4	–	–	–	–	–	–	–	–	C/C(=N\NC(=O)c1ccccc1)c1ccc2ccccc2c1O [MRL19]	inhibition of cell proliferation (in words) [7]: potent inhibitor
–	–	–	–	–	–	–	–	–	–	–	–	0.5	0.4	> 10	9	8	1.2	1	> 10	C/C(=N\NC(=O)c1cc2ccccc2cc1O)c1ccc2ccccc2c1O [MRL20]	IC50 ([2]; HCT116, 24 h): > 2 µM; inhibition of cell proliferation (in words) [7]: potent inhibitor; IC50 ([5]; SW480, 24 h): > 2 µM; IC50 ([6]; PanC-1, 48 h): 5 µM; IC50 ([6]; PanC-1, 72 h): 1 µM
–	–	–	–	–	–	–	–	–	–	–	–	3.8	3	> 10	5	5	5	3	> 10	C/C(=N\NC(=O)c1ccco1)c1ccc2ccccc2c1O [MRL21]	IC50 ([2]; HCT116, 24 h): 10 µM; inhibition of cell proliferation (in words) [7]: potent inhibitor; IC50 ([5]; SW480, 24 h): > 10 µM; IC50 ([6]; PanC-1, 48 h): 5 µM; IC50 ([6]; PanC-1, 72 h): 3 µM
> 10	> 10	> 10	> 10	> 10	> 10	> 10	> 10	> 10	> 10	> 10	> 10	–	–	–	–	–	–	–	–	C/C(=N\NC(=O)Cc1cc2ccccc2[nH]1)c1ccc2ccccc2c1O [MRL22]	–
> 10	> 10	> 10	> 10	5	4	> 10	> 10	> 10	> 10	> 10	> 10	–	–	–	–	–	–	–	–	C/C(=N\NC(N)=S)c1ccc2ccccc2c1O [MRL23]	inhibition of cell proliferation (in words) [7]: potent inhibitor
> 10	3.5	2	> 10	> 10	5	> 10	10	4	> 10	5	4	–	–	–	–	–	–	–	–	C/C(=N\NC(=O)c1ccc(O)cc1)c1ccc2ccccc2c1O [MRL24]	inhibition of cell proliferation (in words) [7]: potent inhibitor

The remaining lines, values behind:

Structure (SMILES)	IC50 [2, 8] [µM]	IC50 [2, 9] [µM]	IC50 [2, 10] [µM]	IC50 [3, 11] [µM]	IC50 [3, 12] [µM]	IC50 [3, 13] [µM]	IC50 ([5]; Homo sapiens, SW480, 24 h) [µM]	IC50 ([5]; Homo sapiens, SW480, 48 h) [µM]	IC50 ([5]; Homo sapiens, SW480, 72 h) [µM]	IC50 ([6]; Homo sapiens, PANC-1, 24 h) [µM]	IC50 ([6]; Homo sapiens, PANC-1, 48 h) [µM]	IC50 ([6]; Homo sapiens, PANC-1, 72 h) [µM]	IC50 ([2]; HCT116, 48 h) [µM]	IC50 ([2]; HCT116, 72 h) [µM]	IC50 ([3]; MiaPaCa-2, 24 h) [µM]	IC50 ([3]; MiaPaCa-2, 48 h) [µM]	IC50 ([3]; MiaPaCa-2, 72 h) [µM]	IC50 ([5]; SW480, 48 h) [µM]	IC50 ([5]; SW480, 72 h) [µM]	IC50 ([6]; PanC-1, 24 h) [µM]	other results
OC[C@H]1O[C@@H]2O[C@H]3[C@H](O)[C@@H](O)[C@@H](O[C@H]4[C@H](O)[C@@H](O)[C@@H](O[C@H]5[C@H](O)[C@@H](O)[C@@H](O[C@H]6[C@H](O)[C@@H](O)[C@@H](O[C@H]7[C@H](O)[C@@H](O)[C@@H](O[C@H]8[C@H](O)[C@@H](O)[C@@H](O[C@H]1[C@H](O)[C@H]2O)O[C@@H]8CO)O[C@@H]7CO)O[C@@H]6CO)O[C@@H]5CO)O[C@@H]4CO)O[C@@H]3CO [CD, β-cyclodextrin]	> 50	> 50	> 50	> 50	> 50	> 50	> 50	> 50	> 50	> 50	> 50	> 50	–	–	–	–	–	–	–	–	G0/G1 (%) [1]: 61.1%; G2M (%) [1]: 19.8%; S (%) [1]: 14.9%; SubG0 Dead Cells (%) [1]: 3.6%; G0/G1 (%) [4]: 43.9%; G2M (%) [4]: 10.9%; S (%) [4]: 12.3%; SubG0 Dead Cells (%) [4]: 31.0%
O=C(N/N=C/c1coc2ccccc2c1=O)c1cc2ccccc2cc1O [CMR]	–	–	–	–	–	–	–	–	–	–	–	–	> 50	> 50	> 50	> 50	> 50	> 50	> 50	> 50	IC50 ([2]; HCT116, 24 h): > 50 µM; IC50 ([5]; SW480, 24 h): > 50 µM; IC50 ([6]; PanC-1, 48 h): > 50 µM; IC50 ([6]; PanC-1, 72 h): > 50 µM
C/C(=N\NC(=O)c1cc2ccccc2cc1O)c1cc2ccccc2oc1=O [COU]	> 50	> 50	> 50	> 50	> 50	> 50	> 50	> 50	> 50	> 50	> 50	> 50	–	–	–	–	–	–	–	–	–
NNC(=O)c1cc2ccccc2cc1O [MRL BDM]	–	–	–	–	–	–	–	–	–	–	–	–	> 50	> 50	> 50	> 50	> 50	> 50	> 50	> 50	IC50 ([2]; HCT116, 24 h): > 50 µM; IC50 ([5]; SW480, 24 h): > 50 µM; IC50 ([6]; PanC-1, 48 h): > 50 µM; IC50 ([6]; PanC-1, 72 h): > 50 µM
O=C(N/N=C/c1ccc(F)c(F)c1)c1cc2ccccc2cc1O [MRL DFB]	–	–	–	–	–	–	–	–	–	–	–	–	25	22	> 50	25	17	20	18	> 50	IC50 ([2]; HCT116, 24 h): > 50 µM; IC50 ([5]; SW480, 24 h): > 50 µM; IC50 ([6]; PanC-1, 72 h): 20 µM
O=C(N/N=C/c1ccc(F)cc1)c1cc2ccccc2cc1O [MRL MFB]	–	–	–	–	–	–	–	–	–	–	–	–	> 50	> 50	> 50	> 50	> 50	> 50	> 50	> 50	IC50 ([2]; HCT116, 24 h): > 50 µM; IC50 ([5]; SW480, 24 h): > 50 µM; IC50 ([6]; PanC-1, 48 h): > 50 µM; IC50 ([6]; PanC-1, 72 h): > 50 µM
O=C(N/N=C/c1ccc(O)cc1)c1cc2ccccc2cc1O [MRL MHB]	–	–	–	–	–	–	–	–	–	–	–	–	> 50	> 50	> 50	> 50	> 50	> 50	> 50	> 50	IC50 ([2]; HCT116, 24 h): > 50 µM; IC50 ([5]; SW480, 24 h): > 50 µM; IC50 ([6]; PanC-1, 48 h): > 50 µM; IC50 ([6]; PanC-1, 72 h): > 50 µM
O=C(N/N=C/c1cc(F)cc(F)c1)c1cc2ccccc2cc1O [MRL RFB]	–	–	–	–	–	–	–	–	–	–	–	–	35	35	> 50	40	35	40	35	> 50	IC50 ([6]; PanC-1, 48 h): 40 µM; IC50 ([6]; PanC-1, 72 h): 40 µM
O=C(N/N=C/c1ccc(F)c(F)c1F)c1cc2ccccc2cc1O [MRL TFB]	–	–	–	–	–	–	–	–	–	–	–	–	> 50	> 50	> 50	> 50	> 50	> 50	> 50	> 50	IC50 ([2]; HCT116, 24 h): > 50 µM; IC50 ([5]; SW480, 24 h): > 50 µM; IC50 ([6]; PanC-1, 48 h): > 50 µM; IC50 ([6]; PanC-1, 72 h): > 50 µM
O=C(N/N=C/c1ccc2ccccc2n1)c1cc2ccccc2cc1O [QNL]	> 50	> 50	20	> 50	> 50	25	> 50	> 50	> 50	> 50	> 50	> 50	–	–	–	–	–	–	–	–	–
